pIC50: −log10 of the molar value.
Assays:
BAX [1] = target: T1, BAX (Homo sapiens, UniProt Q07812); assay: Competitive fluorescence polarization binding assay (FPA), BAX / FITC-BIM-SAHB; conditions: BAX 150 nM, FITC-BIM-SAHB 25 nM; read-out: IC50, competition of FITC-BIM-SAHB by FPA
T1 construct: Human full-length (1-192) wild-type BAX (Q07812); made in house; host or cells: E. coli BL21 (DE3) CodonPlus (DE3)-RIPL
Description: Fluorescence polarization assays (FPA) were performed as previously described (Gavathiotis, E., et al. Nat Chem Biol 8, 639-645 (2012)). Direct binding isotherms of BIM-SAHB were measured by incubated FITC-BIM-SAHB (25 nM) with serial dilutions of full-length BAX alone or in the presence of 0.5 or 1 µM EO. Competition binding assays were performed by titrating ED into BAX (150 nM) and FITC-BIM-SAHB (25 nM). Measurements were taken at 10-minute intervals over 60 minutes on a TECAN F200 PRO microplate reader. Reported curves represent 10-minute time point. KD values and IC50 were determined using GraphPad Prism nonlinear fit four-parameter agonist or antagonist versus response with restraints for 100% and 0% bound calculated by the mP of saturated BAX + FITC-BIM-SAHB and FITC-BIM-SAHB alone.
To test this hypothesis, a competitive fluorescence polarization assay (FPA) (Gavathiotis, E., et al. Nat Chem Biol 8, 639-645 (2012)) based on the interaction between BAX and fluorescently-labeled stapled BIM-BH3 peptide (FITC-BIM-SAHB) was used (Gavathiotis, E., et al. Nature 455, 1076-1081 (2008)). […] The IC50 and KD are consistent with a competitive binding mechanism of EO displacing FITC-BIM-SAHB from the N-terminal trigger site of BAX.

BAX [2] = target: T1, BAX; assay: Liposomal permeabilization (ANTS/DPX release) assay; type: biochemical; conditions: 50 nM BAX and 5 nM tBID; compared with EO
Description: Lipids (Avanti Polar Lipids) at the following ratio, phosphatidylcholine 48%, phosphatidylinositol 10%, dioleoyl phosphatidylserine 10%, phosphatidylethanolamine, 28%, and tetraoleoyl cardiolipin 4%, were mixed in a total of 1 mg, dried and resuspended in 10 mM HEPES, pH 7, 200 mM KCI, and 5 mM MgCl2 with 12.5 mM 8-aminonaphthalene-1,3,6-trisulfonic acid (ANTS) dye and 45 mM p-xylene-bis-pyridinium bromide (DPX) quencher (Molecular Probes) using a water bath sonicator. Liposomes were formed by extrusion of the suspension using Avanti Mini-Extruder (Cat # 610000) with polycarbonate membranes of 0.1 µm pore size (Avanti Polar Lipids). ANTS/DPX encapsulated liposomes were purified from non-encapsulated ANTS/DPX by gel filtration of a 10 mL CL2B-Sepharose (GE Healthcare Life Sciences) gravity-flow column. BAX (50-250 nM) was combined with tBID, BIM, and EO at the indicated concentrations to a volume of 90 µL. Reactions were initiated by the addition of […] of the encapsulated ANTS/DPX liposome stock. ANTS/DPX release was quantified based on the increase in fluorescence intensity that occurs when the ANTS fluorophore is separated from the DPX quencher upon release from the liposomes into solution. Fluorescence (λex = 355 nm and λem = 520 nm) was measured at 1 minute intervals at room temperature (22-25° C.) indicated using a Tecan Infinite M1000 plate reader. In the case of heat activation, reactions were set up as described in the absence of tBID or BIM, and experiments were recorded at 42° C. The percentage release of ANTS/DPX at any given time point was calculated as percentage release=((F-F0)/(F100-F0))(100), where F0 and F100 are baseline and maximal fluorescence, respectively. Triton X-100 (1%) was used to determine the maximum amount of liposomal release per assay and was set to 100%.
Next, EO’s capacity to modulate BAX activity was evaluated using liposomal release assays. […] Instead, EO was able to inhibit both tBID- and BIM BH3-mediated BAX activation (FIGS. 1E, 1F, and 1G). Inhibition of tBID-mediated BAX activation by EO was inversely proportional to the concentration of the tBID activator, consistent with competitive inhibition of BH3-activator binding.

[3] = test system: platelets of C57BL/6J mice; assay: In vivo mouse platelet experiments; conditions: ABT-263 25 mg/kg single dose, oral gavage, within 24 hr
Description: Wild type black mice strain C57BL/6J were treated with vehicle, ABT-263 (25 mg/kg, single dose), EO (100 mg/kg, then 3 hrs later 50 mg/kg), or a combination of ABT-263 and EO. EO was formulated in dH2O, and ABT-263 was formulated in 10% ethanol, 30% polyethylene glycol 400, and 60% Phosal 50 PG. Both ABT-263 and EO were administered by oral gavage. Blood samples were collected by submandibular bleed before treatment and 24 hours following treatment, and CBC was acquired. Percentage platelet protection was calculated as follows: % Platelet Protection = (100)(Px - mPABT)/(mPv - mPABT) where Px is the platelet count for a given mouse, mPv is the mean vehicle treated platelet count, and mPABT is the mean ABT-263 treated platelet count. Statistical analysis was performed using one-way ANOVA with select multiple comparisons as shown.
Finally, whether EO can rescue thrombocytopenia induced by the activity of navitoclax was evaluated in mice. The use of navitoclax is limited by on-target toxicity triggering BAK/BAX-mediated platelet apoptosis (Zhang, H. et al. Cell Death Differ 14, 943-951 (2007)). […] This EO effect is distinct from its capacity to stimulate platelet production by differentiation of the megakaryocyte precursors and progenitor cells, which requires 5 days to begin (Erickson-Miller, C. L. et al. Stem Cells 27, 424-430 (2009); Jenkins, J. M. et al. Blood 109, 4739-4741 (2007)).

T1 sequence (Q07812 whole entry): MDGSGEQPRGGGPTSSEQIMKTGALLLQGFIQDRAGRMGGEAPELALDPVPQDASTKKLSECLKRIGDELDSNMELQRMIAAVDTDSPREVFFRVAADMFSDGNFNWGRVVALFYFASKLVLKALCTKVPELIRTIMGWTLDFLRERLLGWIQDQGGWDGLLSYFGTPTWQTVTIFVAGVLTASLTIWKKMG

| Compound | pIC50 (BAX [1]) | inhibition of BAX in liposomal release assays (BAX [2]) | platelet loss [3] |
| --- | --- | --- | --- |
| COC(=O)c1cccc(-c2cccc(NN=C3C(=O)N(c4ccc(C)c(C)c4)N=C3C)c2O)c1 [EO-Methyl Ester, eltrombopag methyl ester] | < 5.30 | significantly diminished inhibition |  |
| CC1(C)CCC(c2ccc(Cl)cc2)=C(CN2CCN(c3ccc(C(=O)NS(=O)(=O)c4ccc(N[C@H](CCN5CCOCC5)CSc5ccccc5)c(S(=O)(=O)C(F)(F)F)c4)cc3)CC2)C1 [navitoclax] |  |  | significant platelet loss |

— patent US20230270721A1, “INHIBITION OF BAX-MEDIATED CELL DEATH BY ELTROMBOPAG” (Albert Einstein College of Medicine, priority 2020, published 2023)
